Legend:
A549 (human lung) = experiment: CellTox Green Cytotoxicity Assay; conditions: ratio > 1 cytostatic, ≤ 1 cytotoxic
[1] = system: SARS-CoV-2 B.1.429 (Epsilon); experiment: microbe, parasite or virus in culture; format: cell-based
SARS-CoV-2 WA1 = experiment: microbe, parasite or virus in culture; format: cell-based; conditions: Severe acute respiratory syndrome coronavirus 2, Caco-2, 96 h
[2] = system: Calu-3 (human lung adenocarcinoma); experiment: CellTox Green Cytotoxicity Assay; conditions: ratio > 1 cytostatic, ≤ 1 cytotoxic
A549 cells = experiment: Phospholipidosis imaging (NBD-PE fluorescence); conditions: 24 h, sangivamycin up to 5 μM, melperone 10 μM, amiodarone positive control
[3] = Severe acute respiratory syndrome coronavirus 2, Calu-3, 24 h

For `NC(=O)c1cn([C@@H]2O[C@H](CO)[C@@H](O)[C@H]2O)c2ncnc(N)c12` [Sangivamycin, sangivamycin], the “Ratio CellTox Green/CellTiter-Glo” value (A549 (human lung)) was greater than 28.9, the “SI (selectivity index, CC50/IC50)” value ([1]; B.1.429 (Epsilon), Calu-3 cells) was greater than 8.4 and the IC50 [1, 3] was 71.1 nM. It also gave an IC90 [1, 3] of 234 nM, an IC50 (SARS-CoV-2 WA1) of 14 ± 2 nM and an IC90 (SARS-CoV-2 WA1) of 63 ± 17 nM. The “Ratio CellTox Green/CellTiter-Glo” value [2] was greater than 15.5 and the “NBD-PE fluorescence (phospholipidosis)” value (A549 cells) was “no significant NBD-PE fluorescence above the DMSO control baseline”.

Source: PMC8765048 (JCI Insight, 2022)
